Among the test systems are Rhizoctonia solani Kuhn; Septoria tritici; Staphylococcus aureus; Escherichia coli.
Holding throughout (format): cell-based
For another assay, the system named is Rhizoctonia solani. The assay is described as follows: Anti-filamentous fungal activity, inhibitory circle on agar plate. Particulars: 1 μl sample spotted, culture 24 hours at 25° C. The protocol: Rhizoctonia solani microorganisms were cultured in a potato dextrose (PD) medium (Difco) at 25° C. for 5 days, and then their hyphae were cut thin with a homogenizer. From the resulting suspension of thin hyphae, a clump of hyphae was removed, and the hyphae were recovered by centrifugation and adjusted to a density of 10^5 hyphae/ml with PD medium. A PDA medium was added in a solution form to 250 μl hypha suspension to form 5 ml suspension which was then spread on a Petri dish (diameter, 8.4 cm). After the medium was solidified, 1 μl sample for activity evaluation was spotted thereon followed by culture for 24 hours at 25° C., and the size of an inhibitory circle formed around the spot was measured.
The above-described method of evaluating anti-Rhizoctonia solani activity was used to evaluate the activity of the 4 synthetic proteins.

In the next assay the test system is Pyricularia oryzae. To be noted: 50 μg protein spotted.
A further assay concerns Phytophthora infestance. Particulars: V8 juice medium, 20° C., 50 μg protein spotted.

Bridges are numbered along the chain shown (N, C = ends). Where no end group is shown, it is not given here.

Turning to “SP4080: protein consisting of 36 amino acid residues, SEQ ID NO:7, from Coconut rhinoceros beetle; chemically synthesized with disulfide linkages (ELPKLPDDKVLIRSRSNCPKGKVWNGFDCKSPFAFS; disulfide 18-29 (inferred))”, the Inhibitory circle result was “⊚ (Inhibitory circle of 4 mm or more)” in the assay on Rhizoctonia solani; “◯ (Inhibitory circle of less than 4 mm)” in the assay on Pyricularia oryzae; “⊚ (key: ⊚: Inhibitory circle of 4 mm or more; ◯: Inhibitory circle of less than 4 mm; X: No activity)” in the assay on Rhizoctonia solani Kuhn; “◯ (key: ⊚: Inhibitory circle of 4 mm or more; ◯: Inhibitory circle of less than 4 mm; X: No activity)” in the assay on Septoria tritici; “◯ (Inhibitory circle of less than 4 mm)” with Phytophthora infestance; “⊚ (key: ⊚: Inhibitory circle of 4 mm or more; ◯: Inhibitory circle of less than 4 mm; X: No activity)” in the assay with Staphylococcus aureus. In addition, the Inhibitory circle entry with Escherichia coli is listed as “⊚ (key: ⊚: Inhibitory circle of 4 mm or more; ◯: Inhibitory circle of less than 4 mm; X: No activity)”.
Regarding “SP4266: protein consisting of 38 amino acid residues in total represented by SEQ ID NO:8; chemically synthesized (DAELPKLPDDKVLIRSRSNCPKGKVWNGFDCKSPFAFS; Oryctes rhinoceros)”, the Inhibitory circle result in the assay with Rhizoctonia solani is reported as “⊚ (Inhibitory circle of 4 mm or more)”.
Still for that read-out and setting: for “SP4337: protein consisting of 38 amino acid residues in total represented by SEQ ID NO:9; chemically synthesized (ELPKLPDDKVLIRSRSNCPKGKVWNGFDCKSPFAFSKK; Oryctes rhinoceros)” the value was “⊚ (Inhibitory circle of 4 mm or more)”.
“SP4523: protein consisting of 40 amino acid residues in total represented by SEQ ID NO:10; chemically synthesized (DAELPKLPDDKVLIRSRSNCPKGKVWNGFDCKSPFAFSKK; Oryctes rhinoceros)”: the Inhibitory circle entry with Rhizoctonia solani is on record as “⊚ (Inhibitory circle of 4 mm or more)”.

The values are drawn from patent US7041808B2 (priority 2001, dated 2006).
